In this experiment the test system is MV-4-11 cells. As to the kind of experiment: Gene expression microarray analysis (Affymetrix PrimeView) and GSEA. The experiment is classed as cell-based, human. Set-up: RFU PODN (11730768_x_at) / Fold change /veh PODN (11730768_x_at) / RFU LINC00158 (11744669_a_at) / Fold change /veh LINC00158 (11744669_a_at) / RFU DUSP10 (11751237_a_at) / Fold change /veh DUSP10 (11751237_a_at) / RFU ID3 (11757404_x_at) / Fold change /veh ID3 (11757404_x_at) / RFU PLEKHG5 (11737974_s_at) / Fold change /veh PLEKHG5 (11737974_s_at) / RFU LRRC4B (11730491_at) / Fold change /veh LRRC4B (11730491_at) / RFU GIMAP4 (11747438_a_at) / Fold change /veh GIMAP4 (11747438_a_at) / RFU KRT8 (11758183_x_at) / Fold change /veh KRT8 (11758183_x_at) / RFU CNN1 (11734310_a_at) / Fold change /veh CNN1 (11734310_a_at) / RFU VPS37D (11726825_at) / Fold change /veh VPS37D (11726825_at) / RFU C10orf10 (11716522_x_at) / Fold change /veh C10orf10 (11716522_x_at) / RFU KIR2DL2 /// KIR2DL4 /// KIR2DL5A /// KIR2DL5B /// KIR2DS1 /// KIR2DS2 /// KIR2DS3 /// KIR2DS4 /// KIR3DL3 /// KIR3DL3 /// KIR3DS1 (11738374_at) / Fold change /veh KIR2DL2 /// KIR2DL4 /// KIR2DL5A /// KIR2DL5B /// KIR2DS1 /// KIR2DS2 /// KIR2DS3 /// KIR2DS4 /// KIR3DL3 /// KIR3DL3 /// KIR3DS1 (11738374_at) / RFU C1QL1 (11718748_at) / Fold change /veh C1QL1 (11718748_at) / RFU TMPRSS4 (11747572_a_at) / Fold change /veh TMPRSS4 (11747572_a_at) / RFU HAMP (11756126_x_at) / Fold change /veh HAMP (11756126_x_at) / RFU RNFT2 (11725882_a_at) / Fold change /veh RNFT2 (11725882_a_at) / RFU NR4A2 (11747474_a_at) / Fold change /veh NR4A2 (11747474_a_at) / RFU ABCC12 (11746883_a_at) / Fold change /veh ABCC12 (11746883_a_at) / RFU TMEM136 (11760407_x_at) / Fold change /veh TMEM136 (11760407_x_at) / RFU CLDN22 /// WWC2 (11732394_at) / Fold change /veh CLDN22 /// WWC2 (11732394_at) / RFU HLA-DPB1 (11760878_x_at) / Fold change /veh HLA-DPB1 (11760878_x_at) / RFU SPINT1 (11716480_a_at) / Fold change /veh SPINT1 (11716480_a_at) / RFU GAP43 (11754022_s_at) / Fold change /veh GAP43 (11754022_s_at) / RFU A4GNT (11735810_at) / Fold change /veh A4GNT (11735810_at) / RFU PRB3 (11715151_x_at) / Fold change /veh PRB3 (11715151_x_at) / RFU TUBB4B (11761932_at) / Fold change /veh TUBB4B (11761932_at) / RFU CAPN14 (11732068_a_at) / Fold change /veh CAPN14 (11732068_a_at) / RFU TMCC2 (11721928_a_at) / Fold change /veh TMCC2 (11721928_a_at) / RFU IRGQ (11745062_a_at) / Fold change /veh IRGQ (11745062_a_at) / RFU FAM174B (11720279_a_at) / Fold change /veh FAM174B (11720279_a_at) / RFU TMPRSS4 (11748680_a_at) / Fold change /veh TMPRSS4 (11748680_a_at) / RFU FAM212B (11763350_a_at) / Fold change /veh FAM212B (11763350_a_at) / RFU PLEKHG5 (11743358_a_at) / Fold change /veh PLEKHG5 (11743358_a_at) / RFU ZSCAN30 (11745921_a_at) / Fold change /veh ZSCAN30 (11745921_a_at) / RFU CMKLR1 (11741424_a_at) / Fold change /veh CMKLR1 (11741424_a_at) / RFU LOC101060620 /// MAPK8IP1 (11723275_at) / Fold change /veh LOC101060620 /// MAPK8IP1 (11723275_at) / RFU SPTSSB (11747773_x_at) / Fold change /veh SPTSSB (11747773_x_at) / RFU PRSS12 (11739890_at) / Fold change /veh PRSS12 (11739890_at) / RFU BIN1 (11741810_x_at) / Fold change /veh BIN1 (11741810_x_at) / RFU WNT11 (11732464_a_at) / Fold change /veh WNT11 (11732464_a_at) / RFU C10orf10 (11716521_a_at) / Fold change /veh C10orf10 (11716521_a_at) / RFU C5orf56 (11738089_at) / Fold change /veh C5orf56 (11738089_at) / RFU CYB561 (11721691_x_at) / Fold change /veh CYB561 (11721691_x_at) / RFU ANKRD19P (11752326_a_at) / Fold change /veh ANKRD19P (11752326_a_at) / RFU OR2T12 /// OR2T33 /// OR2T8 (11738714_s_at) / Fold change /veh OR2T12 /// OR2T33 /// OR2T8 (11738714_s_at) / RFU VCAN (11748164_a_at) / Fold change /veh VCAN (11748164_a_at) / RFU JSRP1 (11732532_at) / Fold change /veh JSRP1 (11732532_at) / RFU KRTAP10-11 (11738290_x_at) / Fold change /veh KRTAP10-11 (11738290_x_at) / RFU MYO3A (11730013_a_at) / Fold change /veh MYO3A (11730013_a_at) / RFU EBF3 (11725865_a_at) / Fold change /veh EBF3 (11725865_a_at) / RFU CAMK2N1 (11719241_x_at) / Fold change /veh CAMK2N1 (11719241_x_at) / RFU C5orf56 (11738088_a_at) / Fold change /veh C5orf56 (11738088_a_at) / RFU OLFML3 (11715873_a_at) / Fold change /veh OLFML3 (11715873_a_at) / RFU LOC100653217 /// NTM (11731650_a_at) / Fold change /veh LOC100653217 /// NTM (11731650_a_at) / RFU MAPK11 (11762145_a_at) / Fold change /veh MAPK11 (11762145_a_at) / RFU FIZ1 (11724087_x_at) / Fold change /veh FIZ1 (11724087_x_at) / RFU OASL (11726364_x_at) / Fold change /veh OASL (11726364_x_at) / RFU SOX15 (11748057_x_at) / Fold change /veh SOX15 (11748057_x_at) / RFU CD79A (11719716_a_at) / Fold change /veh CD79A (11719716_a_at) / RFU HIST1H1D (11736915_at) / Fold change /veh HIST1H1D (11736915_at) / RFU CASKIN2 (11723855_a_at) / Fold change /veh CASKIN2 (11723855_a_at) / RFU LOC730098 (11760151_x_at) / Fold change /veh LOC730098 (11760151_x_at) / RFU OR4N2 (11742367_at) / Fold change /veh OR4N2 (11742367_at) / RFU PRRT2 (11749266_a_at) / Fold change /veh PRRT2 (11749266_a_at) / RFU SNX32 (11753110_a_at) / Fold change /veh SNX32 (11753110_a_at) / RFU CDHR5 (11726645_a_at) / Fold change /veh CDHR5 (11726645_a_at) / RFU RCAN1 (11760418_a_at) / Fold change /veh RCAN1 (11760418_a_at) / RFU FAM167A (11723789_a_at) / Fold change /veh FAM167A (11723789_a_at) / RFU FAM26E (11764081_at) / Fold change /veh FAM26E (11764081_at) / RFU ISYNA1 (11749810_s_at) / Fold change /veh ISYNA1 (11749810_s_at) / RFU ACY1 (11761880_at) / Fold change /veh ACY1 (11761880_at) / RFU 11764098_at / Fold change /veh 11764098_at / RFU SAMD14 (11745864_x_at) / Fold change /veh SAMD14 (11745864_x_at) / RFU NPB (11741838_a_at) / Fold change /veh NPB (11741838_a_at) / RFU TMPRSS6 (11731388_a_at) / Fold change /veh TMPRSS6 (11731388_a_at) / RFU KRTAP10-2 (11738614_at) / Fold change /veh KRTAP10-2 (11738614_at) / RFU ARHGAP8 /// PRR5-ARHGAP8 (11727945_x_at) / Fold change /veh ARHGAP8 /// PRR5-ARHGAP8 (11727945_x_at) / RFU KRTAP5-7 /// NADSYN1 (11734609_at) / Fold change /veh KRTAP5-7 /// NADSYN1 (11734609_at) / RFU RASL12 (11751679_a_at) / Fold change /veh RASL12 (11751679_a_at) / RFU CDKN2B (11736163_a_at) / Fold change /veh CDKN2B (11736163_a_at) / RFU PRF1 (11729649_at) / Fold change /veh PRF1 (11729649_at) / RFU, ZNF638 /// ZNF638-IT1 / Fold change vs veh, ZNF638 /// ZNF638-IT1 / RFU, PANK3 / Fold change vs veh, PANK3 / RFU, SH3YL1 / Fold change vs veh, SH3YL1 / RFU, ZEB2 / Fold change vs veh, ZEB2 / RFU, NRIP1 / Fold change vs veh, NRIP1 / RFU, PTTG1IP / Fold change vs veh, PTTG1IP / RFU, CAPN2 / Fold change vs veh, CAPN2 / RFU, MED14 / Fold change vs veh, MED14 / RFU, SNORA58 / Fold change vs veh, SNORA58 / RFU, C1orf63 / Fold change vs veh, C1orf63 / RFU, LRRFIP1 / Fold change vs veh, LRRFIP1 / RFU, NDUFAF7 / Fold change vs veh, NDUFAF7 / RFU, SLC12A2 / Fold change vs veh, SLC12A2 / RFU, IBTK / Fold change vs veh, IBTK / RFU, ESF1 / Fold change vs veh, ESF1 / Fold change vs veh, TMEM50B / RFU, TAOK1 / Fold change vs veh, TAOK1 / RFU, ACBD3 / Fold change vs veh, ACBD3 / RFU, TMA16 / Fold change vs veh, TMA16 / RFU, RWDD3 / Fold change vs veh, RWDD3 / RFU, BCAT1 / Fold change vs veh, BCAT1 / RFU, EDEM3 / Fold change vs veh, EDEM3 / RFU, TMEM33 / Fold change vs veh, TMEM33 / RFU, WDR75 / Fold change vs veh, WDR75 / RFU, AHCTF1 / Fold change vs veh, AHCTF1 / RFU, TFRC / Fold change vs veh, TFRC / RFU, ZDHHC17 / Fold change vs veh, ZDHHC17 / RFU, NOM1 / Fold change vs veh, NOM1 / RFU, ARL8B / Fold change vs veh, ARL8B / RFU, ZBTB11 / Fold change vs veh, ZBTB11 / RFU, TAMM41 / Fold change vs veh, TAMM41 / RFU, KIAA1704 /// LOC100996395 / Fold change vs veh, KIAA1704 /// LOC100996395 / RFU, ING1 / Fold change vs veh, ING1 / RFU, TRMT61B / Fold change vs veh, TRMT61B / RFU, FUBP3 / Fold change vs veh, FUBP3 / RFU, TP53 / Fold change vs veh, TP53 / RFU, TNKS2 / Fold change vs veh, TNKS2 / RFU, ZFP14 / Fold change vs veh, ZFP14 / RFU, ACTR2 / Fold change vs veh, ACTR2 / RFU, PPP3R1 / Fold change vs veh, PPP3R1 / RFU, PIK3R1 / Fold change vs veh, PIK3R1 / RFU, HNRNPA1 / Fold change vs veh, HNRNPA1 / RFU, RNF170 / Fold change vs veh, RNF170 / RFU, ZNF28 / Fold change vs veh, ZNF28 / RFU, RNGTT / Fold change vs veh, RNGTT / RFU, OGT / Fold change vs veh, OGT / RFU, BRD1 / Fold change vs veh, BRD1 / RFU, MARS / Fold change vs veh, MARS / RFU, ZNF655 / Fold change vs veh, ZNF655 / RFU, FAHD1 / Fold change vs veh, FAHD1 / RFU, BDP1 / Fold change vs veh, BDP1 / RFU, LRRCC1 / Fold change vs veh, LRRCC1 / RFU, ARID1A / Fold change vs veh, ARID1A / RFU, ZNF146 / Fold change vs veh, ZNF146 / RFU, ZNF330 / Fold change vs veh, ZNF330 / RFU, GPN3 / Fold change vs veh, GPN3 / RFU, C9orf123 / Fold change vs veh, C9orf123 / RFU, N4BP2L2 / Fold change vs veh, N4BP2L2 / RFU, ARFIP1 / Fold change vs veh, ARFIP1 / RFU, FAM179B / Fold change vs veh, FAM179B / RFU, BCL10 / Fold change vs veh, BCL10 / RFU, UHRF1BP1L / Fold change vs veh, UHRF1BP1L / RFU, BET1 / Fold change vs veh, BET1 / RFU, CNOT2 / Fold change vs veh, CNOT2 / RFU, ZNF268 / Fold change vs veh, ZNF268 / Fold change vs veh, ZNF507 / RFU, DGCR2 / Fold change vs veh, DGCR2 / RFU, WDSUB1 / Fold change vs veh, WDSUB1 / Fold change vs veh, HSP90B1 /// MIR3652 / RFU, ADSS / Fold change vs veh, ADSS / RFU, GK / Fold change vs veh, GK / RFU, ZNF148 / Fold change vs veh, ZNF148 / RFU, TAF9 / Fold change vs veh, TAF9 / RFU, SLC1A5 / Fold change vs veh, SLC1A5 / RFU, SLMO2 / Fold change vs veh, SLMO2 / RFU, ABCC4 / Fold change vs veh, ABCC4 / RFU, LOC101060439 /// RAP1B / Fold change vs veh, LOC101060439 /// RAP1B / RFU, RFX7 / Fold change vs veh, RFX7 / RFU, GTPBP10 / Fold change vs veh, GTPBP10 / RFU, CNEP1R1 / Fold change vs veh, CNEP1R1 / RFU, BIVM-ERCC5 /// ERCC5 / Fold change vs veh, BIVM-ERCC5 /// ERCC5 / RFU, ILF3 / Fold change vs veh, ILF3 / RFU 11762660_at / Fold change /veh 11762660_at / RFU VCAN (11757783_s_at) / Fold change /veh VCAN (11757783_s_at) / RFU DDX43 (11728927_at) / Fold change /veh DDX43 (11728927_at) / RFU KRT8 (11758188_x_at) / Fold change /veh KRT8 (11758188_x_at) / RFU NKD1 (11759106_at) / Fold change /veh NKD1 (11759106_at) / RFU SRD5A1 (11742802_a_at) / Fold change /veh SRD5A1 (11742802_a_at) / RFU TPSAB1 /// TPSB2 (11721975_s_at) / Fold change /veh TPSAB1 /// TPSB2 (11721975_s_at) / RFU GSTM3 (11746129_a_at) / Fold change /veh GSTM3 (11746129_a_at) / RFU IL23R (11737362_x_at) / Fold change /veh IL23R (11737362_x_at) / RFU TMEM51 (11727254_a_at) / Fold change /veh TMEM51 (11727254_a_at) / RFU PIWIL2 (11732686_x_at) / Fold change /veh PIWIL2 (11732686_x_at) / RFU ORM1 (11744905_x_at) / Fold change /veh ORM1 (11744905_x_at) / RFU CCDC152 (11743942_at) / Fold change /veh CCDC152 (11743942_at) / RFU ECM1 (11717891_a_at) / Fold change /veh ECM1 (11717891_a_at) / RFU IL23R (11748794_a_at) / Fold change /veh IL23R (11748794_a_at) / RFU TNFAIP8L3 (11732012_x_at) / Fold change /veh TNFAIP8L3 (11732012_x_at) / RFU MBOAT4 (11741988_at) / Fold change /veh MBOAT4 (11741988_at) / RFU 11764193_at / Fold change /veh 11764193_at / RFU TMEM53 (11763286_at) / Fold change /veh TMEM53 (11763286_at) / RFU MAGEB2 (11727129_at) / Fold change /veh MAGEB2 (11727129_at) / RFU TMEM200A (11744735_a_at) / Fold change /veh TMEM200A (11744735_a_at) / RFU CCDC152 (11751479_a_at) / Fold change /veh CCDC152 (11751479_a_at) / RFU FAM211A (11726209_a_at) / Fold change /veh FAM211A (11726209_a_at) / RFU RGS16 (11746705_a_at) / Fold change /veh RGS16 (11746705_a_at) / RFU VCAN (11755009_s_at) / Fold change /veh VCAN (11755009_s_at) / RFU RHOB (11743442_s_at) / Fold change /veh RHOB (11743442_s_at) / RFU RGS16 (11720943_a_at) / Fold change /veh RGS16 (11720943_a_at) / RFU RGS16 (11720944_at) / Fold change /veh RGS16 (11720944_at) / RFU, VPS4B / Fold change vs veh, VPS4B / RFU, CREB1 / Fold change vs veh, CREB1 / RFU, DNAJC13 / Fold change vs veh, DNAJC13 / RFU, GNAQ / Fold change vs veh, GNAQ / RFU, CDK5R1 / Fold change vs veh, CDK5R1 / RFU, ZRANB3 / Fold change vs veh, ZRANB3 / RFU, CUL4A / Fold change vs veh, CUL4A / RFU, CCNY / Fold change vs veh, CCNY / RFU, UFL1 / Fold change vs veh, UFL1 / RFU, COG3 / Fold change vs veh, COG3 / RFU, DIAPH2 / Fold change vs veh, DIAPH2 / RFU, SKA2 / Fold change vs veh, SKA2 / RFU, AFF3 / Fold change vs veh, AFF3 / RFU, LMF1 / Fold change vs veh, LMF1 / RFU, IPO11 / Fold change vs veh, IPO11 / RFU, DFFB / Fold change vs veh, DFFB / RFU, FOXP1 / Fold change vs veh, FOXP1 / RFU, CARD8 / Fold change vs veh, CARD8 / RFU, STRN3 / Fold change vs veh, STRN3 / RFU, ADK / Fold change vs veh, ADK / RFU, RASSF2 / Fold change vs veh, RASSF2 / RFU, WIPF1 / Fold change vs veh, WIPF1 / RFU, LARP1B / Fold change vs veh, LARP1B / RFU, RASA1 / Fold change vs veh, RASA1 / RFU, RB1 / Fold change vs veh, RB1 / RFU, PPFIA1 / Fold change vs veh, PPFIA1 / RFU, MAT2A / Fold change vs veh, MAT2A / RFU, CCT5 / Fold change vs veh, CCT5 / RFU, WDR92 / Fold change vs veh, WDR92 / RFU, CUX1 / Fold change vs veh, CUX1 / RFU, TTC7A / Fold change vs veh, TTC7A / RFU, TMEM135 / Fold change vs veh, TMEM135 / RFU, DEPTOR / Fold change vs veh, DEPTOR / RFU, CPM / Fold change vs veh, CPM / RFU, DNAJB6 / Fold change vs veh, DNAJB6 / RFU, CACNA2D3 / Fold change vs veh, CACNA2D3 / RFU, DTX4 / Fold change vs veh, DTX4 / RFU, TFCP2 / Fold change vs veh, TFCP2 / RFU, GMCL1 /// GMCL1P1 / Fold change vs veh, GMCL1 /// GMCL1P1 / RFU, AEBP2 / Fold change vs veh, AEBP2 / RFU, SNHG1 /// SNORD22 /// SNORD25 /// SNORD26 /// SNORD27 /// SNORD28 /// SNORD29 /// SNORD31 / Fold change vs veh, SNHG1 /// SNORD22 /// SNORD25 /// SNORD26 /// SNORD27 /// SNORD28 /// SNORD29 /// SNORD31 / Fold change (Aza/veh), C12orf56 (ProbeSet 11735607_a_at) / Fold change (ACY-1035/veh), C12orf56 (ProbeSet 11735607_a_at) / Fold change (Aza/veh), FGFR1OP (ProbeSet 11751329_s_at) / Fold change (ACY-1035/veh), FGFR1OP (ProbeSet 11751329_s_at) / Fold change (Aza/veh), VPS36 (ProbeSet 11739960_a_at) / Fold change (ACY-1035/veh), VPS36 (ProbeSet 11739960_a_at) / RFU SYPL1 (11715823_x_at) / Fold change /veh SYPL1 (11715823_x_at) / RFU IGFBP7 (11715501_s_at) / Fold change /veh IGFBP7 (11715501_s_at) / RFU REEP3 (11722064_at) / Fold change /veh REEP3 (11722064_at) / RFU IGLL1 (11728026_x_at) / Fold change /veh IGLL1 (11728026_x_at): dose or concentration left out as unconfirmed. The settings on record: ProbeSet 11758170_s_at; LIST D.

Take `Nc1ccc(-c2cccs2)cc1NC(=O)c1ccc2c(c1)cc(C1CC1)n2CCN1CCOCC1` [ACY-1035]: the “Fold change vs veh, DIAPH2” value was 1.00.
